The text below walks through data of patent publication US10208081B2, “Bile acid derivatives as FXR/TGR5 agonists and methods of use thereof” (Enanta Pharmaceuticals, Inc., priority 2014, dated 2019).

The assay deals with human FXR (NR1H4) (Homo sapiens (Human), UniProt Q96RI1). Briefly: Human FXR (NR1H4) Assay (Gal4 promoter driven luciferase reporter, Indigo Bioscience kit IB00601). Type of assay: cell-based. The note with it: for Efficacy (%): efficacy normalized to CDCA set as 100%; for EC50: potency ranges. The text has this:
Assays Human FXR (NR1H4) Assay
Determination of a ligand mediated Gal4 promoter driven transactivation quantify ligand binding mediated activation of FXR. FXR Reporter Assay kit purchased from Indigo Bioscience (Catalogue number: IB00601) to determine the potency and efficacy of compound developed by Enanta that can induce FXR activation. The principle application of this reporter assay system is to quantify functional activity of human FXR. The assay utilizes non-human mammalian cells, CHO (Chinese hamster ovary) cells engineered to express human NR1H4 protein (referred to as FXR). Reporter cells also incorporate the cDNA encoding beetle luciferase which catalyzes the substrates and yields photon emission. Luminescence intensity of the reaction is quantified using a plate-reading luminometer, Envision. Reporter Cells include the luciferase reporter gene functionally linked to an FXR responsive promoter. Thus, quantifying changes in luciferase expression in the treated reporter cells provides a sensitive surrogate measure of the changes in FXR activity. […] The assay is according to the manufacturer's instructions. In brief, the assay was performed in white, 96 well plates using final volume of 100 ul containing cells with different doses of compounds. Retrieve Reporter Cells from −80° C. storage. Perform a rapid thaw of the frozen cells by transferring a 10 ml volume of 37° C. cell recovery medium into the tube of frozen cells. Recap the tube of Reporter Cells and immediately place it in a 37° C. water bath for 5-10 minutes. Retrieve the tube of Reporter Cell Suspension from the water bath. Sanitize the outside surface of the tube with a 70% alcohol swab, and then transfer it into the cell culture hood. Dispense 90 μl of cell suspension into each well of the 96-well Assay Plate. Transfer the plate into 37° C. incubator, allowing the cells adherent to the bottom of the well. Dilute compounds in Dilution Plate (DP), and administrate to cells at Assay Plate (AP). DMSO content of the samples was kept at 0.2%. Cells were incubated for additional 22 hours before luciferase activities were measured. Thirty minutes before intending to quantify FXR activity, remove Detection Substrate and Detection Buffer from the refrigerator and place them in a low-light area so that they may equilibrate to room temperature. Remove the plate's lid and discard all media contents by ejecting it into an appropriate waste container. Gently tap the inverted plate onto a clean absorbent paper towel to remove residual droplets. Cells will remain tightly adhered to well bottoms. Add 100 μl of luciferase detection reagent to each well of the assay plate. Allow the assay plate to rest at room temperature for at least 5 minutes following the addition of LDR. Set the instrument (Envision) to perform a single 5 second “plate shake” prior to reading the first assay well. Read time may be 0.5 second (500 mSec) per well.

Sequence of human FXR (NR1H4) (Q96RI1 whole entry, the tested form may be a part): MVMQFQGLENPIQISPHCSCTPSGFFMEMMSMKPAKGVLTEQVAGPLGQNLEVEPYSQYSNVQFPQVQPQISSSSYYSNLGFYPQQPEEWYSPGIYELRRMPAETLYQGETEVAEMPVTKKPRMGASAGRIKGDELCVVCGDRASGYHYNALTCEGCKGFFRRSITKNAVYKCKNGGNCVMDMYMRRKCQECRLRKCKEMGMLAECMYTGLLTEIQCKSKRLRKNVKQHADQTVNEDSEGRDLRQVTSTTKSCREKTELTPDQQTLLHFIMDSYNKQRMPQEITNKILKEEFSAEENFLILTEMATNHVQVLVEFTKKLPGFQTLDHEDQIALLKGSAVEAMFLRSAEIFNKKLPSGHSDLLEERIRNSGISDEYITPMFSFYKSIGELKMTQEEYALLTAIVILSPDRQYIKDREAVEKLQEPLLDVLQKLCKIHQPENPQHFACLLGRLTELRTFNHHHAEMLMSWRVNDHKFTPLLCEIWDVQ

Take `CC[C@H]1[C@@H](O)[C@@H]2[C@H](CC[C@]3(C)[C@@H]([C@H](C)CCNC(=O)NS(=O)(=O)C(C)(C)C)CC[C@@H]23)[C@@]2(C)CC[C@@H](O)C[C@@H]12` [Example 28]: the “Efficacy (%)” value is reported as 323% and the EC50 was less than 100 nM.

`CC[C@H]1[C@@H](O)[C@@H]2[C@H](CC[C@]3(C)[C@@H]([C@H](C)CCNC(=O)NS(=O)(=O)c4ccncc4)CC[C@@H]23)[C@@]2(C)CC[C@@H](O)C[C@@H]12` [Example 49]: the “Efficacy (%)” value was 236% and the EC50 is 1000 to 10000 nM.

Consider `CC[C@H]1[C@@H](O)[C@@H]2[C@H](CC[C@]3(C)[C@@H]([C@H](C)CCNC(=O)N(C)S(=O)(=O)c4ccccc4)CC[C@@H]23)[C@@]2(C)CC[C@@H](O)C[C@@H]12` [Example 56], for which the “Efficacy (%)” value turned out to be 295% and the 50% effective concentration (EC50) is 100 to 1000 nM.

With `CC[C@H]1[C@@H](O)[C@@H]2[C@H](CC[C@]3(C)[C@@H]([C@H](C)CCNS(=O)(=O)O)CC[C@@H]23)[C@@]2(C)CC[C@@H](O)C[C@@H]12` [Example 131], the “Efficacy (%)” value was 8% and the EC50 was 1000 to 10000 nM.

For `CC[C@H]1[C@@H](O)[C@@H]2[C@H](CC[C@]3(C)[C@@H]([C@H](C)CCNS(=O)(=O)c4cccc(N5CCCCC5)c4)CC[C@@H]23)[C@@]2(C)CC[C@@H](O)C[C@@H]12` [Example 133], the “Efficacy (%)” value amounted to 80% and the EC50 is more than 10000 nM.

For `CC[C@H]1[C@@H](O)[C@@H]2[C@H](CC[C@]3(C)[C@@H]([C@H](C)CCNC(=O)NS(N)(=O)=O)CC[C@@H]23)[C@@]2(C)CC[C@@H](O)C[C@@H]12` [Example 124], the “Efficacy (%)” value is listed as 195% and the 50% effective concentration (EC50) is 1000 to 10000 nM.

For `CC[C@H]1[C@@H](O)[C@@H]2[C@H](CC[C@]3(C)[C@@H]([C@H](C)CCNS(=O)(=O)CCC(=O)O)CC[C@@H]23)[C@@]2(C)CC[C@@H](O)C[C@@H]12` [Example 141], the “Efficacy (%)” value was determined as 16% and the EC50 was in the range of 1000 to 10000 nM.

Turning to `CC[C@H]1[C@@H](O)[C@@H]2[C@H](CC[C@]3(C)[C@@H]([C@H](C)CNC(=O)NS(=O)(=O)C4CC4)CC[C@@H]23)[C@@]2(C)CC[C@@H](O)C[C@@H]12` [Example 30], the “Efficacy (%)” value was 194% and the EC50 is 1000 to 10000 nM.

For `CC[C@H]1[C@@H](O)[C@@H]2[C@H](CC[C@]3(C)[C@@H]([C@H](C)CCNC(=O)NS(=O)(=O)c4ccc(-c5ccno5)cc4OC)CC[C@@H]23)[C@@]2(C)CC[C@@H](O)C[C@@H]12` [Example 73], the “Efficacy (%)” value was 444% and the EC50 lay within 100 to 1000 nM.

Regarding `CC[C@H]1[C@@H](O)[C@@H]2[C@H](CC[C@]3(C)[C@@H]([C@H](C)CCNC(=O)NS(=O)(=O)Nc4ccc(C(C)(C)C)cc4)CC[C@@H]23)[C@@]2(C)CC[C@@H](O)C[C@@H]12` [Example 105], the “Efficacy (%)” value is recorded as 322% and the EC50 lay in the range of 100 to 1000 nM.

As to `CC[C@H]1[C@@H](O)[C@@H]2[C@H](CC[C@]3(C)[C@@H]([C@H](C)CCNC(=O)NS(=O)(=O)N4CC(F)(F)C(F)(F)C4)CC[C@@H]23)[C@@]2(C)CC[C@@H](O)C[C@@H]12` [Example 81], the “Efficacy (%)” value stood at 315% and the EC50 was less than 100 nM.

Consider `CC[C@H]1[C@@H](O)[C@@H]2[C@H](CC[C@]3(C)[C@@H]([C@H](C)CCNC(=O)NS(=O)(=O)c4ccc(C(C)(C)CO)cc4)CC[C@@H]23)[C@@]2(C)CC[C@@H](O)C[C@@H]12` [Example 69], for which the “Efficacy (%)” value is 490% and the EC50 is less than 100 nM.

Turning to `CC[C@H]1[C@@H](O)[C@@H]2[C@H](CC[C@]3(C)[C@@H]([C@H](C)CCNC(=O)NS(=O)(=O)N4CCN(C(C)(C)C)CC4)CC[C@@H]23)[C@@]2(C)CC[C@@H](O)C[C@@H]12` [Example 84], the “Efficacy (%)” value amounted to 351% and the EC50 was 100 to 1000 nM.

On to `CC[C@H]1[C@@H](O)[C@@H]2[C@H](CC[C@]3(C)[C@@H]([C@H](C)CCNC(=O)NS(=O)(=O)N4CCC(C(C)(C)C)CC4)CC[C@@H]23)[C@@]2(C)CC[C@@H](O)C[C@@H]12` [Example 67], for which the “Efficacy (%)” value is 351% and the EC50 is less than 100 nM.

Turning to `CC[C@H]1[C@@H](O)[C@@H]2[C@H](CC[C@]3(C)[C@@H]([C@H](C)CCNC(=O)NS(=O)(=O)c4cccc(Cl)c4)CC[C@@H]23)[C@@]2(C)CC[C@@H](O)C[C@@H]12` [Example 24], the “Efficacy (%)” value is 421% and the EC50 was less than 100 nM.

`CC[C@H]1[C@@H](O)[C@@H]2[C@H](CC[C@]3(C)[C@@H]([C@H](C)CCN(C)C(=O)NS(=O)(=O)c4ccc(C(C)(C)C)cc4)CC[C@@H]23)[C@@]2(C)CC[C@@H](O)C[C@@H]12` [Example 26]: the “Efficacy (%)” value was 378% and the EC50 was in the range of 100 to 1000 nM.

As for `CC[C@H]1[C@@H](O)[C@@H]2[C@H](CC[C@]3(C)[C@@H]([C@H](C)CCNC(=O)NS(=O)(=O)c4ccc(C(F)(F)F)cc4)CC[C@@H]23)[C@@]2(C)CC[C@@H](O)C[C@@H]12` [Example 14], the “Efficacy (%)” value is reported as 295% and the 50% effective concentration (EC50) is 100 to 1000 nM.

Consider `CC[C@H]1[C@@H](O)[C@@H]2[C@H](CC[C@]3(C)[C@@H]([C@H](C)CCNC(=O)NS(=O)(=O)c4cc(F)cc(OC)c4)CC[C@@H]23)[C@@]2(C)CC[C@@H](O)C[C@@H]12` [Example 103], for which the “Efficacy (%)” value was 328% and the EC50 is less than 100 nM.

`CC[C@H]1[C@@H](O)[C@@H]2[C@H](CC[C@]3(C)[C@@H]([C@H](C)CCNC(=O)NS(=O)(=O)N4C[C@@H](C)O[C@@H](C)C4)CC[C@@H]23)[C@@]2(C)CC[C@@H](O)C[C@@H]12` [Example 75]: the “Efficacy (%)” value amounted to 323% and the EC50 was less than 100 nM.

Consider `CC[C@H]1[C@@H](O)[C@@H]2[C@H](CC[C@]3(C)[C@@H]([C@H](C)CCNC(=O)NS(=O)(=O)c4ccc(-c5ccccc5)cc4)CC[C@@H]23)[C@@]2(C)CC[C@@H](O)C[C@@H]12` [Example 54], for which the “Efficacy (%)” value worked out at 273% and the EC50 is less than 100 nM.

For the molecule `CC[C@H]1[C@@H](O)[C@@H]2[C@H](CC[C@]3(C)[C@@H]([C@H](C)CCNC(=O)NS(=O)(=O)c4cccc(OC(F)(F)F)c4)CC[C@@H]23)[C@@]2(C)CC[C@@H](O)C[C@@H]12` [Example 50], the “Efficacy (%)” value is 309% and the EC50 is less than 100 nM.

With `CC[C@H]1[C@@H](O)[C@@H]2[C@H](CC[C@]3(C)[C@@H]([C@H](C)CCCNC(=O)NS(=O)(=O)C4CC4)CC[C@@H]23)[C@@]2(C)CC[C@@H](O)C[C@@H]12` [Example 20], the “Efficacy (%)” value came out at 334% and the EC50 fell in the range of 100 to 1000 nM.

On to `CC[C@H]1[C@@H](O)[C@@H]2[C@H](CC[C@]3(C)[C@@H]([C@H](C)CCNS(=O)(=O)C(C)(C)C)CC[C@@H]23)[C@@]2(C)CC[C@@H](O)C[C@@H]12` [Example 139], for which the “Efficacy (%)” value turned out to be 138% and the EC50 was in the range of 1000 to 10000 nM.

Consider `CC[C@H]1[C@@H](O)[C@@H]2[C@H](CC[C@]3(C)[C@@H]([C@H](C)CCNC(=O)NS(=O)(=O)N4CCCCCC4)CC[C@@H]23)[C@@]2(C)CC[C@@H](O)C[C@@H]12` [Example 47], for which the “Efficacy (%)” value was 361% and the EC50 was less than 100 nM.

As for `CC[C@H]1[C@@H](O)[C@@H]2[C@H](CC[C@]3(C)[C@@H]([C@H](C)CCNC(=O)NS(=O)(=O)C4CCC(C)(C)CC4)CC[C@@H]23)[C@@]2(C)CC[C@@H](O)C[C@@H]12` [Example 101], the “Efficacy (%)” value came out at 244% and the 50% effective concentration (EC50) is less than 100 nM.

On to `CC[C@H]1[C@@H](O)[C@@H]2[C@H](CC[C@]3(C)[C@@H]([C@H](C)CCNC(=O)NS(=O)(=O)C4CCC(C(C)(C)C)CC4)CC[C@@H]23)[C@@]2(C)CC[C@@H](O)C[C@@H]12` (stereo partly drawn) [Example 88], for which the “Efficacy (%)” value is 378% and the EC50 was less than 100 nM.

Turning to `CC[C@H]1[C@@H](O)[C@@H]2[C@H](CC[C@]3(C)[C@@H]([C@H](C)CCCNS(=O)(=O)C(C)C)CC[C@@H]23)[C@@]2(C)CC[C@@H](O)C[C@@H]12` [Example 11], the “Efficacy (%)” value stood at 267% and the EC50 lay in the range of 1000 to 10000 nM.
